{"source": "PubChem BioAssay AID248", "about": "(DTP/NCI, 2004)", "test_system": "L1210 leukemia ip in BDF1 mice, survival T/C", "experiment": "NCI In Vivo Anticancer Drug Screen. Data for tumor model L1210 Leukemia (intraperitoneal) in B6D2F1 (BDF1) mice", "settings": "endpoint: mean survival time, higher = longer survival", "how_it_was_run": "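Tumor cells were implanted, animals were treated, and survival was followed. The result divides the treated measurement by the vehicle-control measurement.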", "note": "Where “and” joins values, the source holds several entries; their conditions need not be identical. Identical values can stand only once. Toxic doses and inconclusive results are not listed.", "data": [{"smiles": "O=C(Nc1ccc(C2=NCCCN2)cc1)c1ccc(C(=O)Nc2ccc(C3=NCCCN3)cc2)cc1", "values": [{"measurement": "T/C", "setting": "dose: 0.5 mg/kg/injection, schedule: Q01DX Z (ip), vehicle: carboxymethylcellulose (CMC)", "result": "95 % of control"}, {"measurement": "T/C", "setting": "dose: 0.5 mg/kg/injection, schedule: Q01DX Z (iv), vehicle: saline", "result": "100 % of control"}, {"measurement": "T/C", "setting": "dose: 0.8 mg/kg/injection, schedule: Q01DX Z (ip), vehicle: carboxymethylcellulose (CMC)", "result": "101 % of control"}, {"measurement": "T/C", "setting": "dose: 1.0 mg/kg/injection, schedule: Q01DX010 (ip), vehicle: other", "result": "160 % of control"}, {"measurement": "T/C", "setting": "dose: 1.0 mg/kg/injection, schedule: Q01DX010 (iv), vehicle: other", "result": "103 % of control"}, {"measurement": "T/C", "setting": "dose: 1.0 mg/kg/injection, schedule: Q01DX Z (iv), vehicle: saline", "result": "107 % of control"}, {"measurement": "T/C", "setting": "dose: 1.2 mg/kg/injection, schedule: Q01DX Z (ip), vehicle: carboxymethylcellulose (CMC)", "result": "103 % of control"}, {"measurement": "T/C", "setting": "dose: 1.9 mg/kg/injection, schedule: Q01DX Z (ip), vehicle: carboxymethylcellulose (CMC)", "result": "109 % of control and 211 % of control"}, {"measurement": "T/C", "setting": "dose: 2.0 mg/kg/injection, schedule: Q01DX010 (ip), vehicle: other", "result": "174 % of control and 235 % of control"}, {"measurement": "T/C", "setting": "dose: 2.0 mg/kg/injection, schedule: Q01DX010 (ip), vehicle: saline", "result": "155 % of control"}, {"measurement": "T/C", "setting": "dose: 2.0 mg/kg/injection, schedule: Q01DX010 (iv), vehicle: other", "result": "180 % of control"}, {"measurement": "T/C", "setting": "dose: 2.0 mg/kg/injection, schedule: Q01DX Z (iv), vehicle: saline", "result": "111 % of control"}, {"measurement": "T/C", "setting": "dose: 2.8 mg/kg/injection, schedule: Q01DX Z (ip), vehicle: carboxymethylcellulose (CMC)", "result": "277 % of control"}, {"measurement": "T/C", "setting": "dose: 4.0 mg/kg/injection, schedule: Q01DX010 (ip), vehicle: other", "result": "205 % of control and 217 % of control and 265 % of control"}, {"measurement": "T/C", "setting": "dose: 4.0 mg/kg/injection, schedule: Q01DX010 (ip), vehicle: saline", "result": "208 % of control and 235 % of control"}, {"measurement": "T/C", "setting": "dose: 4.0 mg/kg/injection, schedule: Q01DX010 (iv), vehicle: other", "result": "237 % of control"}, {"measurement": "T/C", "setting": "dose: 4.0 mg/kg/injection, schedule: Q01DX010 (iv), vehicle: saline", "result": "203 % of control"}, {"measurement": "T/C", "setting": "dose: 4.0 mg/kg/injection, schedule: Q01DX Z (iv), vehicle: other", "result": "202 % of control"}, {"measurement": "T/C", "setting": "dose: 4.0 mg/kg/injection, schedule: Q01DX Z (iv), vehicle: saline", "result": "238 % of control"}, {"measurement": "T/C", "setting": "dose: 4.2 mg/kg/injection, schedule: Q01DX Z (ip), vehicle: carboxymethylcellulose (CMC)", "result": "280 % of control"}, {"measurement": "T/C", "setting": "dose: 6.3 mg/kg/injection, schedule: Q01DX Z (ip), vehicle: carboxymethylcellulose (CMC)", "result": "209 % of control and 229 % of control"}, {"measurement": "T/C", "setting": "dose: 8.0 mg/kg/injection, schedule: Q01DX010 (ip), vehicle: other", "result": "97 % of control and 115 % of control"}, {"measurement": "T/C", "setting": "dose: 8.0 mg/kg/injection, schedule: Q01DX010 (ip), vehicle: saline", "result": "229 % of control and 338 % of control"}, {"measurement": "T/C", "setting": "dose: 8.0 mg/kg/injection, schedule: Q01DX010 (iv), vehicle: saline", "result": "161 % of control"}, {"measurement": "T/C", "setting": "dose: 8.0 mg/kg/injection, schedule: Q01DX Z (iv), vehicle: saline", "result": "182 % of control"}, {"measurement": "T/C", "setting": "dose: 9.4 mg/kg/injection, schedule: Q01DX Z (ip), vehicle: carboxymethylcellulose (CMC)", "result": "211 % of control"}, {"measurement": "T/C", "setting": "dose: 16.0 mg/kg/injection, schedule: Q01DX010 (ip), vehicle: other", "result": "103 % of control and 89 % of control"}, {"measurement": "T/C", "setting": "dose: 16.0 mg/kg/injection, schedule: Q01DX010 (iv), vehicle: saline", "result": "117 % of control"}, {"measurement": "T/C", "setting": "dose: 16.0 mg/kg/injection, schedule: Q01DX010 (sc), vehicle: olive oil, sesame oil, peanut oil", "result": "113 % of control"}, {"measurement": "T/C", "setting": "dose: 21.3 mg/kg/injection, schedule: Q01DX Z (ip), vehicle: carboxymethylcellulose (CMC)", "result": "119 % of control"}, {"measurement": "T/C", "setting": "dose: 22.0 mg/kg/injection, schedule: Q01DX010 (sc), vehicle: olive oil, sesame oil, peanut oil", "result": "101 % of control"}, {"measurement": "T/C", "setting": "dose: 30.0 mg/kg/injection, schedule: Q01DX Z (oral), vehicle: carboxymethylcellulose (CMC)", "result": "95 % of control"}, {"measurement": "T/C", "setting": "dose: 31.3 mg/kg/injection, schedule: Q01DX010 (sc), vehicle: olive oil, sesame oil, peanut oil", "result": "119 % of control and 89 % of control"}, {"measurement": "T/C", "setting": "dose: 31.3 mg/kg/injection, schedule: Q02DX004 (im), vehicle: olive oil, sesame oil, peanut oil", "result": "116 % of control and 124 % of control"}, {"measurement": "T/C", "setting": "dose: 32.0 mg/kg/injection, schedule: Q01DX Z (ip), vehicle: carboxymethylcellulose (CMC)", "result": "123 % of control"}, {"measurement": "T/C", "setting": "dose: 44.0 mg/kg/injection, schedule: Q01DX Z (sc), vehicle: saline", "result": "109 % of control"}, {"measurement": "T/C", "setting": "dose: 48.0 mg/kg/injection, schedule: Q01DX Z (ip), vehicle: carboxymethylcellulose (CMC)", "result": "94 % of control"}, {"measurement": "T/C", "setting": "dose: 60.0 mg/kg/injection, schedule: Q01DX Z (oral), vehicle: carboxymethylcellulose (CMC)", "result": "91 % of control"}, {"measurement": "T/C", "setting": "dose: 62.5 mg/kg/injection, schedule: Q01DX001 (im), vehicle: steriod suspending solution", "result": "106 % of control"}, {"measurement": "T/C", "setting": "dose: 62.5 mg/kg/injection, schedule: Q01DX010 (oral), vehicle: other", "result": "111 % of control"}, {"measurement": "T/C", "setting": "dose: 62.5 mg/kg/injection, schedule: Q02DX004 (im), vehicle: olive oil, sesame oil, peanut oil", "result": "100 % of control and 107 % of control"}, {"measurement": "T/C", "setting": "dose: 66.0 mg/kg/injection, schedule: Q01DX Z (sc), vehicle: saline", "result": "102 % of control"}, {"measurement": "T/C", "setting": "dose: 72.0 mg/kg/injection, schedule: Q01DX Z (ip), vehicle: carboxymethylcellulose (CMC)", "result": "100 % of control"}, {"measurement": "T/C", "setting": "dose: 88.5 mg/kg/injection, schedule: Q#A X Z (oral), vehicle: saline", "result": "115 % of control"}, {"measurement": "T/C", "setting": "dose: 100.0 mg/kg/injection, schedule: Q01DX Z (sc), vehicle: saline", "result": "105 % of control"}, {"measurement": "T/C", "setting": "dose: 120.0 mg/kg/injection, schedule: Q01DX Z (oral), vehicle: carboxymethylcellulose (CMC)", "result": "91 % of control"}, {"measurement": "T/C", "setting": "dose: 125.0 mg/kg/injection, schedule: Q01DX001 (im), vehicle: steriod suspending solution", "result": "108 % of control"}, {"measurement": "T/C", "setting": "dose: 125.0 mg/kg/injection, schedule: Q02DX004 (im), vehicle: olive oil, sesame oil, peanut oil", "result": "98 % of control and 105 % of control"}, {"measurement": "T/C", "setting": "dose: 150.0 mg/kg/injection, schedule: Q01DX Z (sc), vehicle: saline", "result": "98 % of control and 103 % of control"}, {"measurement": "T/C", "setting": "dose: 177.0 mg/kg/injection, schedule: Q01DX Z (oral), vehicle: saline", "result": "109 % of control"}, {"measurement": "T/C", "setting": "dose: 200.0 mg/kg/injection, schedule: Q#A X Z (oral), vehicle: saline", "result": "161 % of control"}, {"measurement": "T/C", "setting": "dose: 250.0 mg/kg/injection, schedule: Q01DX001 (im), vehicle: steriod suspending solution", "result": "93 % of control"}, {"measurement": "T/C", "setting": "dose: 250.0 mg/kg/injection, schedule: Q01DX010 (oral), vehicle: other", "result": "183 % of control"}, {"measurement": "T/C", "setting": "dose: 250.0 mg/kg/injection, schedule: Q02DX004 (im), vehicle: olive oil, sesame oil, peanut oil", "result": "100 % of control and 104 % of control"}, {"measurement": "T/C", "setting": "dose: 300.0 mg/kg/injection, schedule: Q01DX Z (sc), vehicle: saline", "result": "105 % of control"}, {"measurement": "T/C", "setting": "dose: 333.0 mg/kg/injection, schedule: Q## X010 (oral), vehicle: saline", "result": "153 % of control"}, {"measurement": "T/C", "setting": "dose: 400.0 mg/kg/injection, schedule: Q01DX Z (oral), vehicle: saline", "result": "158 % of control"}, {"measurement": "T/C", "setting": "dose: 500.0 mg/kg/injection, schedule: Q01DX010 (oral), vehicle: other", "result": "181 % of control"}, {"measurement": "T/C", "setting": "dose: 500.0 mg/kg/injection, schedule: Q## X010 (oral), vehicle: saline", "result": "121 % of control"}, {"measurement": "T/C", "setting": "dose: 531.0 mg/kg/injection, schedule: Q03DX Z (oral), vehicle: saline", "result": "105 % of control"}, {"measurement": "T/C", "setting": "dose: 600.0 mg/kg/injection, schedule: Q01DX Z (oral), vehicle: saline", "result": "151 % of control and 163 % of control"}, {"measurement": "T/C", "setting": "dose: 798.0 mg/kg/injection, schedule: Q03DX Z (oral), vehicle: saline", "result": "107 % of control"}, {"measurement": "T/C", "setting": "dose: 900.0 mg/kg/injection, schedule: Q01DX Z (oral), vehicle: saline", "result": "124 % of control"}, {"measurement": "T/C", "setting": "dose: 1200.0 mg/kg/injection, schedule: Q03DX Z (oral), vehicle: saline", "result": "98 % of control"}, {"measurement": "T/C", "setting": "dose: 1239.0 mg/kg/injection, schedule: Q07DX Z (oral), vehicle: saline", "result": "102 % of control"}, {"measurement": "T/C", "setting": "dose: 1800.0 mg/kg/injection, schedule: Q03DX Z (oral), vehicle: saline", "result": "111 % of control"}, {"measurement": "T/C", "setting": "dose: 1862.0 mg/kg/injection, schedule: Q07DX Z (oral), vehicle: saline", "result": "105 % of control"}, {"measurement": "T/C", "setting": "dose: 2700.0 mg/kg/injection, schedule: Q03DX Z (oral), vehicle: saline", "result": "121 % of control"}, {"measurement": "T/C", "setting": "dose: 2800.0 mg/kg/injection, schedule: Q07DX Z (oral), vehicle: saline", "result": "101 % of control"}, {"measurement": "T/C", "setting": "dose: 4200.0 mg/kg/injection, schedule: Q07DX Z (oral), vehicle: saline", "result": "105 % of control"}]}, {"smiles": "COC1OC(CO)C(O)C(OS(C)(=O)=O)C1OS(C)(=O)=O", "note": "(stereo not drawn)", "values": [{"measurement": "T/C", "setting": "dose: 100.0 mg/kg/injection, schedule: Q04DX002 (ip), vehicle: saline", "result": "104 % of control"}, {"measurement": "T/C", "setting": "dose: 200.0 mg/kg/injection, schedule: Q04DX002 (ip), vehicle: saline", "result": "104 % of control"}, {"measurement": "T/C", "setting": "dose: 400.0 mg/kg/injection, schedule: Q04DX002 (ip), vehicle: saline", "result": "93 % of control"}]}]}
